Where two headings read alike, the source gives them in different places.
Tests used:
[1] = tested on: HIV-1 clinical isolated, characterised by mutations on the protease gene inducing geno-phenotypic resistance to NFV; assay: p24 production susceptibility test, Table 10, H-9 cells; assay type: cell-based; settings: for S.I. CQ / Fen. CQ (fold): H-9; for S.I. CQ: I.C.50/E.C.50; for Fen. CQ (fold): ratio to HIV-IIIB; for EC50: Human immunodeficiency virus 1, H9, H-9, read-out: E.C.50 CQ
Excerpt: (§1) For the phenotype of the nucleosidic, non-nucleosidic and proteases inhibitors was utilised a method which consider the use of human PBMC and the protocol standardised by the AIDS Clinical Trials Group, after verifying the genotype by sequence analysis.
(§2) In order to assay in vitro the susceptibility to chloroquine and hydroxychloroquine of the viral strains, it was used the protocol of the ACTG which is characterised by the measure, of the production of antigen p24 in strongly infected cells.
(§3) The susceptibility of the viral strains to chemotherapics was determined in cell cultures, prepared in 96 wells microplates, using, for the infection, 0.1 MOI.
(§4) The supernatant of the infected cultures (either in absence or in presence of different concentrations of chemotherapic) were tested for the production of p24 after 7 days, using an ELISA test which is commercially available.
(§5) The concentrations of chloroquine and hydroxychloroquine tested ranged from 0.5 to 15 uM. At the same time non-infected cells were incubated with concentrations of chloroquine and hydroxychloroquine ranging from 0 to 50 uM to evaluate the toxicity of the compound.
(§6) After 4 day from the infection, half the cellular medium was replaced with a medium containing the corresponding dilution of chloroquine and hydroxychloroquine. The percentage of inhibition of the HIV replication, induced by chloroquine and hydroxychloroquine, was determined, after 7 day from the infection, comparing the levels of p24 of this cultures and that of the control, infected and not treated with chloroquine and hydroxychloroquine.
(§7) Therefore, the E.C.50 of chloroquine and hydroxychloroquine expresses the concentration of chemotherapic that inhibits the 50% of production of p24 and the values were calculated using linear and non linear regression analysis (the significativity for the non linear regression was R^2>0.95).
(§8) In the same experimental conditions and in the same day, but with similar concentrations of chloroquine and hydroxychloroquine, it was evaluated the vitality of the infect cell cultures, and this was expressed as I.C.50.
(§9) I.C.50 (Inhibitory Concentration) indicates the concentration of the chemotherapic agent inhibiting the vitality of the cell cultures at a rate of 50%, when there is not infection.

[2] = tested on: HIV-1 strains geno-phenotypically resistant to NVP; assay: p24 production susceptibility test, Table 6, MT-2 cells; assay type: cell-based; settings: for EC50: Human immunodeficiency virus 1, MT2, MT-2, read-out: E.C.50 CQ; for S.I. CQ / Fen. CQ (fold): MT-2; for S.I. CQ: I.C.50/E.C.50; for Fen. CQ (fold): ratio to HIV-IIIB
Excerpt: as §1, §2, §3, §4, §5, §6, §7, §8, §9

[3] = tested on: HIV-1 clinical isolated, characterised by mutations in the RT gene inducing geno-phenotypic resistance to 3TC; assay: p24 production susceptibility test (ACTG protocol), Table 3; assay type: cell-based; settings: for EC50: Human immunodeficiency virus 1, PBMC, read-out: E.C.50 CQ; for S.I. CQ / Fen. CQ (fold): PBMC; for S.I. CQ: I.C.50/E.C.50; for Fen. CQ (fold): ratio to HIV-IIIB
Excerpt: as §1, §2, §3, §4
At the same time non-infected cells were incubated with concentrations of chloroquine and hydroxychloroquine ranging from 0 to 50 uM to evaluate the toxicity of the compound.
as §6, §7, §8, §9

[4] = tested on: HIV-1 clinical isolated, characterised by mutations in the protease gene inducing geno-phenotypic resistance to SQV; assay: p24 production susceptibility test (ACTG protocol), Table 8; assay type: cell-based; settings: for EC50: Human immunodeficiency virus 1, PBMC, read-out: E.C.50 CQ; for S.I. CQ / Fen. CQ (fold): PBMC; for S.I. CQ: I.C.50/E.C.50; for Fen. CQ (fold): ratio to HIV-IIIB
Excerpt: as §1, §2, §3, §4, §5, §6, §7, §8, §9

[5] = tested on: HIV clinical isolated, characterised by mutations in the RT gene inducing geno-phenotypic resistance to AZT; assay: p24 production susceptibility test (ACTG protocol), Table 1; assay type: cell-based, HIV-1; settings: for EC50: Human immunodeficiency virus 1, PBMC; for S.I. CQ: I.C.50/E.C.50; for CQ (fold): ratio to HIV-IIIB
Excerpt: as §1, §2, §3, §4, §5, §6, §7, §8, §9

[6] = tested on: HIV-1 clinical isolated, characterised by mutations in the protease gene inducing geno-phenotypic resistance to IDV; assay: p24 production susceptibility test (ACTG protocol), Table 9; assay type: cell-based; settings: for EC50: Human immunodeficiency virus 1, PBMC; for S.I. CQ: I.C.50/E.C.50; for Fen. CQ (fold): ratio to HIV-IIIB
Excerpt: as §1, §2, §3, §4, §5, §6, §7, §8, §9

[7] = Gen. M4IL E44D D67N M184V R211K T215Y
[8] = Gen. M41L D67N V118I M184V T215Y
[9] = PBMC, Gen. D67N K70R T215F K219Q
[10] = PBMC, Gen. D 67 Ns K 70N T215F K219Q
[11] = PBMC, Gen. M41I M184V L210W R221K T215Y
[12] = PBMC, Gen. M41L D67N K70RM 184V T215F
[13] = PBMC, Gen. M41LD 76N K70R T215Y
[14] = PBMC, Gen. K20R E35D M36I I54V V82T

`CCN(CC)CCCC(C)Nc1ccnc2cc(Cl)ccc12` (stereo not drawn) [CQ, chloroquine] was tested, and the “S.I. CQ” value ([1]; Gen. D30N) was 4.2, the “Fen. CQ (fold)” value ([1]; Gen. D30N) was 1.3X fold and the “S.I. CQ” value ([1]; Gen. V82A) was 5. For the same compound, the “Fen. CQ (fold)” value ([1]; Gen. V82A) was 1.5X fold, the EC50 ([1]; Gen. D30N) was 2500 nM and the EC50 ([1]; Gen. V82A) was 2700 nM. It also gave an EC50 ([2]; Gen. G190E) of 3500 nM, an EC50 ([2]; Gen. K103N) of 3200 nM and an EC50 ([2]; Gen. V106A) of 2800 nM. For the same compound, the EC50 ([2]; Gen. Y181C) was 3800 nM, the “S.I. CQ” value ([2]; Gen. G190E) was 6 and the “Fen. CQ (fold)” value ([2]; Gen. G190E) was 1.9X fold. For the same compound, the “S.I. CQ” value ([2]; Gen. K103N) was 6.2, the “Fen. CQ (fold)” value ([2]; Gen. K103N) was 1.7X fold and the “S.I. CQ” value ([2]; Gen. V106A) was 7.8. The “Fen. CQ (fold)” value ([2]; Gen. V106A) was 1.5X fold, the “S.I. CQ” value ([2]; Gen. Y181C) was 6 and the “Fen. CQ (fold)” value ([2]; Gen. Y181C) was 2.1X fold. The EC50 [3, 7] was 3000 nM, the EC50 [3, 8] was 3500 nM and the EC50 ([3]; Gen. M184I) was 2500 nM. The EC50 ([3]; Gen. M184V) was 3200 nM, the “S.I. CQ” value [3, 7] was 3 and the “Fen. CQ (fold)” value [3, 7] was 2.1X fold. For the same compound, the “S.I. CQ” value [3, 8] was 3.4, the “Fen. CQ (fold)” value [3, 8] was 1.9X fold and the “S.I. CQ” value ([3]; Gen. M184I) was 3.6. For the same compound, the “Fen. CQ (fold)” value ([3]; Gen. M184I) was 1.1X fold, the “S.I. CQ” value ([3]; Gen. M184V) was 2.5 and the “Fen. CQ (fold)” value ([3]; Gen. M184V) was 1.4X fold. It also gave an EC50 ([4]; Gen. G48V I84V A74V L90M) of 1800 nM, an EC50 ([4]; Gen. G48V V82A) of 3500 nM and an EC50 ([4]; Gen. I84V L90M) of 2500 nM. For the same compound, the EC50 ([4]; Gen. M46I G48V L63P L90M) was 2000 nM, the EC50 ([4]; Gen. V82A L90M) was 1500 nM and the “S.I. CQ” value ([4]; Gen. G48V I84V A74V L90M) was 5.5. For the same compound, the “Fen. CQ (fold)” value ([4]; Gen. G48V I84V A74V L90M) was 1X fold, the “S.I. CQ” value ([4]; Gen. G48V V82A) was 3.4 and the “Fen. CQ (fold)” value ([4]; Gen. G48V V82A) was 1.9X fold. The “S.I. CQ” value ([4]; Gen. I84V L90M) was 3.6, the “Fen. CQ (fold)” value ([4]; Gen. I84V L90M) was 1.3X fold and the “S.I. CQ” value ([4]; Gen. M46I G48V L63P L90M) was 6.7. The “Fen. CQ (fold)” value ([4]; Gen. M46I G48V L63P L90M) was 1.1X fold, the “S.I. CQ” value ([4]; Gen. V82A L90M) was 6 and the “Fen. CQ (fold)” value ([4]; Gen. V82A L90M) was 0.8X fold. It also gave an EC50 ([5]; PBMC, Gen. D67N K70R T215F K219Q, read-out: E.C.50 CQ) of 2 µM, an EC50 ([5]; PBMC, Gen. D 67 Ns K 70N T215F K219Q, read-out: E.C.50 CQ) of 3 µM and an EC50 ([5]; PBMC, Gen. K70R T215F K219Q, read-out: E.C.50 CQ) of 1.8 µM. It also gave an EC50 ([5]; PBMC, Gen. M41I M184V L210W R221K T215Y, read-out: E.C.50 CQ) of 1.5 µM, an EC50 ([5]; PBMC, Gen. M41I T215Y, read-out: E.C.50 CQ) of 2 µM and an EC50 ([5]; PBMC, Gen. M41L D67N K70RM 184V T215F, read-out: E.C.50 CQ) of 2.5 µM. For the same compound, the EC50 ([5]; read-out: E.C.50 CQ (uM), PBMC, Gen. M41LD 76N K70R T215Y) was 3 µM, the “S.I. CQ” value [5, 9] was 4 and the “CQ (fold)” value [5, 9] was 1.1X fold. For the same compound, the “S.I. CQ” value [5, 10] was 3, the “CQ (fold)” value [5, 10] was 2X fold and the “S.I. CQ” value ([5]; PBMC, Gen. K70R T215F K219Q) was 5.5. The “CQ (fold)” value ([5]; PBMC, Gen. K70R T215F K219Q) was 1.1X fold, the “S.I. CQ” value [5, 11] was 6 and the “CQ (fold)” value [5, 11] was 0.8X fold. The “S.I. CQ” value ([5]; PBMC, Gen. M41I T215Y) was 4, the “CQ (fold)” value ([5]; PBMC, Gen. M41I T215Y) was 1.1X fold and the “S.I. CQ” value [5, 12] was 3.6. The “CQ (fold)” value [5, 12] was 1.3X fold, the “S.I. CQ” value [5, 13] was 3.2 and the “CQ (fold)” value [5, 13] was 1.6X fold. The EC50 ([6]; PBMC, Gen. G48V V82A, read-out: E.C.50 CQ) was 2.5 µM, the EC50 ([6]; PBMC, Gen. I84V L90M, read-out: E.C.50 CQ) was 2.2 µM and the EC50 ([6]; PBMC, Gen. K20R E35D M36I I54V V82T, read-out: E.C.50 CQ) was 1.8 µM. The EC50 ([6]; PBMC, Gen. V82F L90M, read-out: E.C.50 CQ) was 2.8 µM, the EC50 ([6]; read-out: E.C.50 CQ (uM), PBMC, Gen. L10R M46I L63P V82T) was 1.5 µM and the “S.I. CQ” value ([6]; PBMC, Gen. G48V V82A) was 3.6. The “Fen. CQ (fold)” value ([6]; PBMC, Gen. G48V V82A) was 1.3X fold, the “S.I. CQ” value ([6]; PBMC, Gen. I84V L90M) was 4 and the “Fen. CQ (fold)” value ([6]; PBMC, Gen. I84V L90M) was 1.2X fold. For the same compound, the “S.I. CQ” value [6, 14] was 5.5, the “Fen. CQ (fold)” value [6, 14] was 1X fold and the “S.I. CQ” value ([6]; PBMC, Gen. L10R M46I L63P V82T) was 5.5. For the same compound, the “Fen. CQ (fold)” value ([6]; PBMC, Gen. L10R M46I L63P V82T) was 1X fold, the “S.I. CQ” value ([6]; PBMC, Gen. V82F L90M) was 3.4 and the “Fen. CQ (fold)” value ([6]; PBMC, Gen. V82F L90M) was 1.5X fold.
